According to patent publication US20240207224A1, “MACROCYCLIC CHALCONE-AMIDE DERIVED ANTIVIRAL AGENTS” (priority 2022, published 2024):
Like-named read-outs stand apart in the source and are kept apart here.

What was measured:
[1] = molecular target: SARS-CoV-2 Papain-like (PLpro) protease (Severe acute respiratory syndrome coronavirus 2, UniProt P0DTD1); test: biochemical
SARS-CoV-2 USA-WA1/2020 = test: SARS-CoV-2 Cellular Assay (Vero 76); format: cell-based; settings: Severe acute respiratory syndrome coronavirus 2, Vero 76, 144 h, read-out: SARS-COV-2 BSL3 EC50
Method: SARS-CoV-2 Cellular Assay (Vero 76): Test compounds are serially diluted using eight half-log dilutions in test medium (MEM supplemented with 2% FBS and 50 µg/mL gentamicin). Each dilution is added to 5 wells of a 96-well plate with 80-100% confluent Vero 76 cells. Three wells of each dilution are infected with virus (SARS-CoV-2 USA-WA1/2020), and two wells remain uninfected as toxicity controls. Six wells are infected and untreated as virus controls, and six wells are uninfected and untreated as cell controls. Viruses are prepared to achieve the lowest possible multiplicity of infection (MOI˜0.002) that would yield >80% cytopathic effect (CPE) at 6 days. Plates are incubated at 37±2° C., 5% CO2. For neutral red assay, on day 6 post-infection, once untreated virus control wells reach maximum CPE, plates are stained with neutral red dye for approximately 2 hours (±15 minutes). Supernatant dye is removed, and wells are rinsed with PBS, and the incorporated dye is extracted in 50:50 Sorensen citrate buffer/ethanol for >30 minutes and the optical density is read on a spectrophotometer at 540 nm. Optical densities are converted to percent of cell controls and normalized to the virus control, then the concentration of test compound required to inhibit CPE by 50% (EC50) is calculated by regression analysis. The concentration of compound that would cause 50% cell death in the absence of virus was similarly calculated (CC50). EC50 ranges are reported as follows: A<1 µM; B 1-10 µM; C 10-50 µM; D>50 µM.

SARS-CoV-2 replicon = test: microbe, parasite or virus in culture; format: cell-based
[2] = Severe acute respiratory syndrome coronavirus 2, Huh-7, 20 h; read-out: SARS-COV-2 replicon EC50
[3] = ubiquitin-fluorophore substrate (Ub-R110), 30 min preincubation at RT, run in duplicate, read-out: PLpro IC50
[4] = Severe acute respiratory syndrome coronavirus 2, Huh-7, 20 h, read-out: SARS-COV-2 replicon EC50

| Compound | IC50 [1, 3] [µM] | also measured |
| --- | --- | --- |
| Cc1ccc2cc1C(=O)N[C@H](C)c1cc(cc3ccccc13)C=CCCCN(C(=O)OCc1ccccc1)C2 [Example 1] |  | IC50 [1]: > 10 µM |
| Cc1ccc2cc1C(=O)N[C@H](C)c1cc(cc3ccccc13)CCCCCNC2 [Example 2] | 0.1 to 1 | EC50 (SARS-CoV-2 USA-WA1/2020): 1 to 10 µM; EC50 (SARS-CoV-2 replicon; [2]): 1 to 10 µM |
| Cc1ccc2cc1C(=O)N[C@H](C)c1cc(cc3ccccc13)C=CCCN(C(=O)OCc1ccccc1)C2 [Example 3] | > 10 |  |
| Cc1ccc2cc1C(=O)N[C@H](C)c1cc(cc3ccccc13)CCCCNC2 [Example 4] | 1 to 10 |  |
| Cc1ccc2cc1C(=O)N[C@H](C)c1cc(cc3ccccc13)CCCCCCNC2 [Example 5] | 0.1 to 1 | EC50 (SARS-CoV-2 replicon; [2]): 1 to 10 µM |
| Cc1ccc2cc1C(=O)N[C@H](C)c1cc(cc3ccccc13)C=CCCCCC2 [Example 6] | > 10 |  |
| Cc1ccc2cc1C(=O)N[C@H](C)c1c(ccc3ccccc13)CCCCNC2 [Example 7] | 1 to 10 |  |
| Cc1ccc2cc1C(=O)N[C@H](C)c1c(ccc3ccccc13)CCCCCNC2 [Example 8] | > 10 |  |
| Cc1ccc2cc1C(=O)N[C@H](C)c1cc(cc3ccccc13)C(=O)N1CCN(CC1)C(=O)CC2 [Example 9] | > 10 |  |
| Cc1ccc2cc1C(=O)N[C@H](C)c1cc(cc3ccccc13)C(=O)N(C)CCCN(C)C(=O)CC2 [Example 11] | > 10 |  |
| Cc1ccc2cc1C(=O)N[C@H](C)c1cc(cc3ccccc13)C(=O)N(C)CCCC(=O)NC2 [Example 12] | > 10 |  |
| Cc1ccc2cc1C(=O)N[C@H](C)c1cc(cc3ccccc13)-c1cn(nn1)CCCC(=O)NC2 [Example 13] | > 10 |  |
| Cc1ccc2cc1C(=O)N[C@H](C)c1cc(cc3ccccc13)-c1cn(nn1)CCCCC(=O)NC2 [Example 14] | 0.1 to 1 | EC50 (SARS-CoV-2 replicon; [2]): > 50 µM |
| Cc1ccc2cc1C(=O)N[C@H](C)c1cc(cc3ccccc13)N1CCN(CCCC(=O)NC2)CC1 [Example 15] | 1 to 10 |  |
| Cc1ccc2cc1C(=O)N[C@H](C)c1cc(cc3ccccc13)N1CCN(CCCCC(=O)NC2)CC1 [Example 16] | > 10 |  |
| Cc1ccc2cc1C(=O)N[C@H](C)c1cc(cc3ccccc13)-c1cn(nn1)CCCCNC2 [Example 17] |  | EC50 (SARS-CoV-2 replicon; [4]): 10 to 50 µM; IC50 [1]: 0.1 to 1 µM |
| COC(=O)/C=C/C(=O)NNC(=O)CCc1ccc2cc1C(=O)N[C@H](C)c1cc(cc3ccccc13)CCCCCCC2 [Example 18] | 0.1 to 1 | EC50 (SARS-CoV-2 USA-WA1/2020): 1 to 10 µM; EC50 (SARS-CoV-2 replicon; [2]): 10 to 50 µM |
| COC(=O)/C=C/C(=O)NNC(=O)CCc1ccc2cc1C(=O)N[C@H](C)c1cc(cc3ccccc13)C=CCCCCC2 [Example 19] | < 0.1 | EC50 (SARS-CoV-2 replicon; [2]): 1 to 10 µM |
| C[C@H]1NC(=O)c2cc(ccc2CCC(=O)NN)CCCCCC=Cc2cc1c1ccccc1c2 [Example 20] | > 10 |  |
| C[C@H]1NC(=O)c2cc(ccc2CCC(=O)NNC(=O)OC(C)(C)C)CCCCCC=Cc2cc1c1ccccc1c2 [Example 21] | > 10 |  |

| Compound | IC50 [1, 3] [µM] | also measured |
| --- | --- | --- |
| COC(=O)/C=C/C(=O)NNC(=O)CCc1ccc2cc1C(=O)N[C@H](C)c1cccc(c1)C=CCCCCC2 [Example 22] | 1 to 10 |  |
| COC(=O)/C=C/C(=O)NNC(=O)CCc1ccc2cc1C(=O)N[C@H](C)c1cc(cc3ccccc13)CCCCCCS(=O)(=O)C2 [Example 23] | < 0.1 | EC50 (SARS-CoV-2 replicon; [2]): 10 to 50 µM |
| COC(=O)/C=C/C(=O)NNC(=O)CCc1ccc2cc1C(=O)N[C@H](C)c1cc(cc3ccccc13)CCCCCS(=O)(=O)C2 [Example 24] | < 0.1 | EC50 (SARS-CoV-2 replicon; [2]): 10 to 50 µM |
| COC(=O)/C=C/C(=O)NNC(=O)CCc1ccc2cc1C(=O)N[C@H](C)c1cc(cc3ccccc13)CCCCCNC2=O [Example 25] |  | EC50 (SARS-CoV-2 USA-WA1/2020): < 1 µM; EC50 (SARS-CoV-2 replicon; [4]): < 1 µM |
| COC(=O)/C=C/C(=O)NNC(=O)CCc1ccc2cc1C(=O)N[C@H](C)c1cc(cc3ccccc13)CCCCCCNC2=O [Example 26] | < 0.1 |  |
| COC(=O)/C=C/C(=O)NNC(=O)CCc1ccc2cc1C(=O)N[C@H](C)c1cc(cc3ccccc13)C=CCCCCNC2=O [Example 27] | < 0.1 |  |
| COC(=O)/C=C/C(=O)NNC(=O)CCc1ccc2cc1C(=O)N[C@H](C)c1cc(cc3ccccc13)C=CCCCNC2=O [Example 28] | < 0.1 |  |
| COC(=O)/C=C/C(=O)NNC(=O)CCc1ccc2cc1C(=O)N[C@H](C)c1cc(cc3ccccc13)C=CCCCCN(C)C2=O [Example 29] | < 0.1 |  |
| COC(=O)/C=C/C(=O)NNC(=O)CCc1ccc2cc1C(=O)N[C@H](C)c1cc(cc3ccccc13)CCCCCCN(C)C2=O [Example 30] | < 0.1 | EC50 (SARS-CoV-2 USA-WA1/2020): < 1 µM; EC50 (SARS-CoV-2 replicon; [2]): 1 to 10 µM |
| COC(=O)/C=C/C(=O)NNC(=O)CCc1ccc2cc1C(=O)N[C@H](C)c1cc(cc3ccccc13)CCCCCN(C)C2=O [Example 31] | < 0.1 |  |
| COC(=O)/C=C/C(=O)NNC(=O)CCc1ccc2cc1C(=O)N[C@H](C)c1cc(cc3ccccc13)C=CCCCN(C)C2=O [Example 32] | < 0.1 |  |
| COC(=O)/C=C/C(=O)NNC(=O)CCc1ccc2cc1C(=O)N[C@H](C)c1cccc3ccc(cc13)CCCCNC2=O [Example 34] | 0.1 to 1 |  |
| COC(=O)/C=C/C(=O)NNC(=O)CCc1ccc2cc1C(=O)N[C@H](C)c1cc(cc3ccccc13)CCCCCNS2(=O)=O [Example 35] | < 0.1 |  |
| COC(=O)/C=C/C(=O)NNC(=O)CCc1ccc2cc1C(=O)N[C@H](C)c1cc(cc3c1CCCC3)CCCCCNS2(=O)=O [Example 36] | 0.1 to 1 |  |
| COC(=O)/C=C/C(=O)NNC(=O)CCc1ccc2cc1C(=O)N[C@H](C)c1cc(cc3ccccc13)CCCCOCCNC2=O [Example 37] | < 0.1 | EC50 (SARS-CoV-2 USA-WA1/2020): < 1 µM; EC50 (SARS-CoV-2 replicon; [2]): < 1 µM |
| COC(=O)/C=C/C(=O)N(NC(=O)CCc1ccc2cc1C(=O)N[C@H](C)c1cc(cc3ccccc13)CCCCOCCNC2=O)C(=O)/C=C/C(=O)OC [Example 38] | < 0.1 |  |
| COC(=O)/C=C/C(=O)NNC(=O)CCc1ccc2cc1C(=O)N[C@H](C)c1cc(cc3ccccc13)CCCCCC(=O)N2 [Example 39] | < 0.1 | EC50 (SARS-CoV-2 USA-WA1/2020): < 1 µM; EC50 (SARS-CoV-2 replicon; [2]): 1 to 10 µM |
| COC(=O)/C=C/C(=O)NNC(=O)CCc1ccc2cc1C(=O)N[C@H](C)c1cc(cc3ccccc13)CCCCOC(=O)N2 [Example 40] | < 0.1 | EC50 (SARS-CoV-2 USA-WA1/2020): < 1 µM; EC50 (SARS-CoV-2 replicon; [2]): 1 to 10 µM |
| C[C@H]1NC(=O)c2cc(ccc2C#N)C(=O)NCCCCCc2cc1c1ccccc1c2 [Example 41] | 1 to 10 |  |
| COC(=O)/C=C/CNC(=O)C(=O)NCc1ccc2cc1C(=O)N[C@H](C)c1cc(cc3ccccc13)CCCCCNC2=O [Example 42, methyl (R,E)-4-(2-(((2-methyl-4,6-dioxo-3,7-diaza-1(1,3)-naphthalena-5(1,3)-benzenacyclododecaphane-5^6-yl)methyl)amino)-2-oxoacetamido)but-2-enoate] | > 10 |  |
